Where two headings read alike, the source gives them in different places.
How the values were obtained:
[1] = molecular target: T1, heat resistant maltose phosphorylase (Bacillus sp. RK-1, UniProt Q84IX5); assay: Inhibitor test on heat resistant maltose phosphorylase activity; type: biochemical; settings: for activity at 1000 µM: read-out: Relative activity (%); for inhibition of the activity: 1 mM inhibitor, heat resistant maltose phosphorylase
Experimental: (§1) The enzymological properties of the heat resistant maltose phosphorylase of the invention are as follows. As the heat resistant maltose phosphorylase,one obtained in Example 1 and prepared from Bacillus sp. RK-1 was used.
(§2) In this connection, maltose phosphorylase activity was assayed according to the following method. An enzyme solution (0.4 ml), 0.06 ml of 0.5M potassium phosphate-citric acid buffer (pH 6.0), 0.6 ml of 2 w/v % maltose and 0.14 ml of distilled water were mixed, and reaction was carried out at 60° C. for 15 minutes and ceased by boiling for 10 minutes. Then, 0.02 ml of a sample was taken from the reaction-ceased solution, 3 ml of a reagent for glucose examination (Glucose CII-Test Wako; Wako Pure Chemical Industries, Ltd.) was added, reaction was carried at room temperature for 20 minutes, the absorbance at 505 nm was measured using a spectrophotometer, and the amount of glucose formed in the reaction solution was determined from the measured value. From the amount of the formed glucose, the amount of the enzyme necessitated to phosphorolyze 1 μmol of maltose in one minute is calculated, and was assumed to be 1 unit.

[2] = molecular target: T2, heat resistant trehalose phosphorylase (Geobacillus stearothermophilus, UniProt Q8GRC3); assay: biochemical; type: biochemical, Bacillus stearothermophilus SK-1; settings: for activity at 1000 µM: read-out: Relative activity (%); for inhibition of the activity: 1 mM inhibitor, heat resistant trehalose phosphorylase
T2 construct: heat resistant trehalose phosphorylase which Bacillus stearothermophilus SK-1 found by the present inventors produces; made in house; host or cells: Bacillus stearothermophilus SK-1 (FERM BP-5594), the producing strain itself
Description: As the heat resistant maltose phosphorylase in the above process, there can be used the same ones as in the above process for preparation of β-glucose-1-phosphoric acid can be used. As the heat resistant trehalose phosphorylase, any one can be used so long as it can produce trehalose from maltose and phosphoric acid or a phosphate salt at one of the above reaction temperatures and at one of the above pH values, with the aid of the heat resistant maltose phosphorylase. […] The SK-1 strain was first deposited on Sep. 29, 1994 with National Institute of Bioscience and Human Technology, Agency of Industrial Science and Technology, the Ministry of International Trade and Industry, Japan under an accession number of FERM P-14567, and then transferred there to deposit according to Budapest Treaty on microorganisms on Jul. 17, 1996, and is assigned an accession number of FERM BP-5594. An example of preparation of the above heat resistant trehalose phosphorylase is shown in Example 4 (crude enzyme) and Reference example 1 (purified enzyme).
(§3) In this connection, trehalose phosphorylase activity was assayed by the following method. An enzyme solution (0.4 ml), 0.06 ml of 0.5M potassium phosphate-citric acid buffer (pH 6.0), 0.6 ml of 2 w/v % trehalose and 0.14 ml of distilled water were mixed, and reaction was carried out at 60° C. for 20 minutes and ceased by boiling for 10 minutes. Then, 0.02 ml of a sample was taken from the reaction-ceased solution, 3 ml of a reagent for glucose examination (Glucose CII-Test Wako; Wako Pure Chemical Industries, Ltd.) was added, reaction was carried out at room temperature for 20 minutes, the absorbance at 505 nm was measured using a spectrophotometer, and the amount of glucose formed in the reaction solution was determined from the measured value. As to the definition of the trehalose phosphorylase activity, the amount of the enzyme necessitated to phosphorolyze 1 μmol of trehalose in one minute under the above assay conditions was assumed to be 1 unit.

[3] = molecular target: T1, heat resistant maltose phosphorylase; assay: Substrate specificity of heat resistant maltose phosphorylase (phosphorolysis reaction, glucose formed); type: biochemical; design: Relative activity (%): concentration or dose not given beside the values; settings: for Relative activity (%): each substance as substrate of phosphorolysis by heat resistant maltose phosphorylase, maltose = 100; for formation of glucose: phosphorolysis reaction with the substance as substrate, heat resistant maltose phosphorylase
Experimental: as §1, §2

[4] = molecular target: T2, heat resistant trehalose phosphorylase; assay: Substrate specificity of heat resistant trehalose phosphorylase (phosphorolysis reaction, glucose formed); type: biochemical, Bacillus stearothermophilus SK-1; design: Relative activity (%): concentration or dose not given beside the values; settings: for Relative activity (%): each substance as substrate of phosphorolysis by heat resistant trehalose phosphorylase, trehalose = 100; for formation of glucose: phosphorolysis reaction with the substance as substrate, heat resistant trehalose phosphorylase
Description: As the heat resistant maltose phosphorylase in the above process, there can be used the same ones as in the above process for preparation of β-glucose-1-phosphoric acid can be used. As the heat resistant trehalose phosphorylase, any one can be used so long as it can produce trehalose from maltose and phosphoric acid or a phosphate salt at one of the above reaction temperatures and at one of the above pH values, with the aid of the heat resistant maltose phosphorylase. However, there can, preferably, be used heat resistant trehalose phosphorylase having an activity of 95% or more of the one untreated after treated in a buffer of pH 6.0, at one temperature of 50° to 65° C., preferably at one temperature of 55° to 65° C., further preferably at one temperature of 60° to 65° C., particularly preferably at 65° C., for 15 minutes. As an example of heat resistant trehalose phosphorylase having such a property, there can be mentioned heat resistant trehalose phosphorylase which Bacillus stearothermophilus SK-1 found by the present inventors produces. The SK-1 strain was first deposited on Sep. 29, 1994 with National Institute of Bioscience and Human Technology, Agency of Industrial Science and Technology, the Ministry of International Trade and Industry, Japan under an accession number of FERM P-14567, and then transferred there to deposit according to Budapest Treaty on microorganisms on Jul. 17, 1996, and is assigned an accession number of FERM BP-5594. An example of preparation of the above heat resistant trehalose phosphorylase is shown in Example 4 (crude enzyme) and Reference example 1 (purified enzyme). The enzymological properties of this purified enzyme are as follows.
as §3

[5] = maltose phosphorylase activity with 1 mM inhibitor, no addition = 100
[6] = trehalose phosphorylase activity with 1 mM inhibitor, no addition = 100

T1 sequence (Q84IX5 entry or part of it, change not shown): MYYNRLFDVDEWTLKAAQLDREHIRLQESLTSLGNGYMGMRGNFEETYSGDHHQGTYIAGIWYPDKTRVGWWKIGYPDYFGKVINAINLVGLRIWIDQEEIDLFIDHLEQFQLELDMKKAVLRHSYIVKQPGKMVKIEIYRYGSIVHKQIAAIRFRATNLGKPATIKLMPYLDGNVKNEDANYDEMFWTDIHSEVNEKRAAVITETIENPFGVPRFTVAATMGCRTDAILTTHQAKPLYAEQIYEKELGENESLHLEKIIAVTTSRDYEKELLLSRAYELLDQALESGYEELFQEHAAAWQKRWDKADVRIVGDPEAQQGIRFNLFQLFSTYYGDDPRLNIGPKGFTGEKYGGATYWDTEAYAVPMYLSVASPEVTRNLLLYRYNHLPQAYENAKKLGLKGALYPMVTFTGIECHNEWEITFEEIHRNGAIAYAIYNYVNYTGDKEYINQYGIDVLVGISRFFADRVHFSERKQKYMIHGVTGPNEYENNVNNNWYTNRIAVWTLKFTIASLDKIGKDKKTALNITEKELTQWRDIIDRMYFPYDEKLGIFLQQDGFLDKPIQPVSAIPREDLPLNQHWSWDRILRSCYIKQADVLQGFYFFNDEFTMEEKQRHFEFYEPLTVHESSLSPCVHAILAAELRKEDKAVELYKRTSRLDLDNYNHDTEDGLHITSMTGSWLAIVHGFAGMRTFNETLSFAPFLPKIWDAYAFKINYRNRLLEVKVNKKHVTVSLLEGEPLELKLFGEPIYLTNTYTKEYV
T2 sequence (Q8GRC3 whole entry, change not shown): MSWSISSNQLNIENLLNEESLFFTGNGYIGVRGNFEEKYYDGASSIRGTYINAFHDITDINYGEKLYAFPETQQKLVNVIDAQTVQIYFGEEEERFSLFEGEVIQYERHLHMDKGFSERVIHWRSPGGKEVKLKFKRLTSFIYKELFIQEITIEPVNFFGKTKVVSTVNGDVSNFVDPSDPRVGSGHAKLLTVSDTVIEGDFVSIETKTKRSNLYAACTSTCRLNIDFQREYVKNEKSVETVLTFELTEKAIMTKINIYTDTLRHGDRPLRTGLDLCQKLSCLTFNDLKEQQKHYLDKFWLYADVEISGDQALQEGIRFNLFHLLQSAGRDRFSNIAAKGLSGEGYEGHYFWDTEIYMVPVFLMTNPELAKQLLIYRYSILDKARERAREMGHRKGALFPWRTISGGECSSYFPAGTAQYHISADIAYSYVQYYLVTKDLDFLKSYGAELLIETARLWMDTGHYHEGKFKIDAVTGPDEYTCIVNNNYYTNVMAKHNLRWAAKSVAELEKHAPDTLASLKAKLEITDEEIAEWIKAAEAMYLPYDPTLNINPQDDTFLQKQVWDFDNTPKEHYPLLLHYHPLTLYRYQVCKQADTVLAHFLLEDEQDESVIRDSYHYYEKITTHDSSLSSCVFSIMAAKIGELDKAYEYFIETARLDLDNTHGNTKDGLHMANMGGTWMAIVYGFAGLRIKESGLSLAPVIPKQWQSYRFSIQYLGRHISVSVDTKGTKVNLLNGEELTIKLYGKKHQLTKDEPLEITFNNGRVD

| Compound | Relative activity (%) [1, 5] [%] | Relative activity (%) [2, 6] [%] | Relative activity (%) [3] [%] | Relative activity (%) [4] [%] | other results |
| --- | --- | --- | --- | --- | --- |
| O[C@H](CS)[C@H](O)CS (racemic) [DTT, Dithiothreitol] |  |  |  |  | activity at 1000 µM [1, 5]: 101%; activity at 1000 µM [2, 6]: 86% |
| [Ba+2].[OH-].[OH-] [Ba (OH)2] | 100 | 106 |  |  |  |
| [Ca+2].[Cl-].[Cl-] [CaCl2] | 101 | 102 |  |  |  |
| OC[C@H]1O[C@@H](O[C@H]2[C@H](O)[C@@H](O)C(O)O[C@@H]2CO)[C@H](O)[C@@H](O)[C@@H]1O (stereo partly drawn) [Cellobiose] |  |  | 0 | 2 | formation of glucose [3]: scarcely observed; formation of glucose [4]: scarcely observed |
| O=S(=O)([O-])[O-].[Cu+2] [CuSO4] | 91 | 89 |  |  |  |
| O=[N+]([O-])c1ccc(O[C@H]2O[C@H](CO)[C@@H](O)[C@H](O)[C@H]2O)cc1 [D - glucosideyl - α, p-nitrophenyl-α-D-glucoside] |  |  | 0 | 2 | formation of glucose [3]: scarcely observed; formation of glucose [4]: scarcely observed |
| O=[N+]([O-])c1ccc(O[C@@H]2O[C@H](CO)[C@@H](O)[C@H](O)[C@H]2O)cc1 [D - glucosideyl - β, p-nitrophenyl-β-D-glucoside] |  |  | 0 | 2 | formation of glucose [3]: scarcely observed; formation of glucose [4]: scarcely observed |
| O=C(O)CN(CCN(CC(=O)O)CC(=O)O)CC(=O)O [EDTA.2Na] |  |  |  |  | activity at 1000 µM [1]: 100% |
| O=C(O)CN(CCN(CC(=O)O)CC(=O)O)CC(=O)O [EDTA] |  |  |  |  | activity at 1000 µM [2]: 99% |
| [Cl][Fe][Cl] [FeCl2] | 94 | 96 |  |  |  |
| OC[C@H]1O[C@@H](OC[C@H]2OC(O)[C@H](O)[C@@H](O)[C@@H]2O)[C@H](O)[C@@H](O)[C@@H]1O (stereo partly drawn) [Gentiobiose] |  |  | 2 |  |  |
| [Cl][Hg][Cl] [HgCl2] | 1 | 1 |  |  | inhibition of the activity [1]: 99%; inhibition of the activity [2]: 99% |
| OC[C@H]1O[C@H](OC[C@H]2OC(O)[C@H](O)[C@@H](O)[C@@H]2O)[C@H](O)[C@@H](O)[C@@H]1O (stereo partly drawn) [Isomaltose] |  |  | 2 | 3 | formation of glucose [3]: scarcely observed; formation of glucose [4]: scarcely observed |
| OC[C@H]1O[C@@H](O[C@H]2[C@H](O)[C@@H](O)C(O)O[C@@H]2CO)[C@H](O)[C@@H](O)[C@H]1O (stereo partly drawn) [Lactose] |  |  | 0 |  |  |
| OC[C@H]1O[C@H](O[C@H]2[C@H](O)[C@@H](O)[C@H](O)O[C@@H]2CO)[C@H](O)[C@@H](O)[C@@H]1O [Maltose] |  |  | 100 | 1 | formation of glucose [4]: scarcely observed |
| OCCS [Mercaptoethanol] |  |  |  |  | activity at 1000 µM [1, 5]: 94%; activity at 1000 µM [2, 6]: 96% |
| [Cl-].[Cl-].[Mg+2] [MgCl2] | 100 | 103 |  |  |  |
| O=S(=O)([O-])[O-].[Mn+2] [MnSO4] | 111 | 108 |  |  |  |
| OC[C@H]1O[C@@H](O[C@H]2O[C@H](CO)[C@@H](O)[C@H](O)[C@H]2O)[C@H](O)[C@@H](O)[C@@H]1O [Neotrehalose] |  |  | 0 | 1 | formation of glucose [3]: scarcely observed; formation of glucose [4]: scarcely observed |
| O=C(O)c1cc[c]([Hg][Cl])cc1 [PCMB, p (Chloromercuri) benzoic acid] | 20 | 0 |  |  |  |
| CC(=O)[O-].CC(=O)[O-].[Pb+2] [Pb (CH3 COO)2] | 99 | 93 |  |  |  |
| OC[C@H]1O[C@@](CO)(O[C@H]2O[C@H](CO)[C@@H](O)[C@H](O)[C@H]2O)[C@@H](O)[C@@H]1O [Sucrose] |  |  | 0 | 1 | formation of glucose [3]: scarcely observed; formation of glucose [4]: scarcely observed |
| OC[C@H]1O[C@H](O[C@H]2O[C@H](CO)[C@@H](O)[C@H](O)[C@H]2O)[C@H](O)[C@@H](O)[C@@H]1O [Trehalose] |  |  | 0 | 100 | formation of glucose [3]: scarcely observed |
| O=S(=O)([O-])[O-].[Zn+2] [ZnSO4] | 63 | 20 |  |  | inhibition of the activity [1]: 37%; inhibition of the activity [2]: 80% |
| Soluble starch |  |  | 2 |  |  |

— patent US5827715A, “Heat resistant maltose phosphorylase, process for preparation thereof, bacteria used for preparation thereof, and methods for using the enzyme” (Showa Sangyo Co., Ltd., priority 1995, dated 1998)
